Patent US20240100021A1, “Combination Therapy Schedules to Treat Cancer” (priority 2021, published 2024)
Like-named read-outs stand apart in the source and are kept apart here.

What was measured:
OCI-AML3 cells = assay: MTT cell proliferation assay; assay type: cell-based; details: continuous exposure 48 hrs, 0.038 μM Bis, 0.26 μM Ara-C, 0.3 μM ABT199, 14 nM Clad, alone or combined, versus control cells
[1] = cited from earlier work
MOLM14 cells = assay: MTT cell proliferation assay; assay type: cell-based; details: 48 hrs, 0.038 μM Bis, 0.45 uM Ara-C, 6.3 nM ABT199, alone or combined, versus control
[2] = cited from earlier work; remark: listed apart in the source
[3] = system: PARP1 and caspase 3 cleavage in MOLM14 cells; assay: Western blot of apoptosis markers; assay type: cell-based; details: 48 hrs
[4] = cancer patients, cited from earlier work
[5] = cited from earlier work; remark: listed apart in the source
[6] = predominantly to albumin; cited from earlier work
[7] = isolated human hepatocytes, in vitro; cited from earlier work
[8] = system: tumor-cytostatic macrophages; details: activation of tumor-cytostatic macrophages (Wang et al. 1984); cited from earlier work
[9] = animals; cited from earlier work
[10] = patients receiving the drug (Myers et al. 1984); cited from earlier work
[11] = cited from earlier work; remark: listed apart in the source
[12] = cited from earlier work; remark: listed apart in the source
double-stranded DNA = details: physiological conditions; cited from earlier work
[13] = cited from earlier work; remark: listed apart in the source
[14] = hairy cell leukemia, 0.09 mg/kg/day continuous intravenous infusion over 7 days
[15] = pediatric ALL or AML, 52 mg/m^2, noncompartmental analysis
[16] = 90 min infusion, 260 mg/m^2, biphasic elimination
[17] = 5 day schedule of 60 min infusions
[18] = three phases of elimination (Alberts et al. 1983)
[19] = trial with doses of 80-250 mg/m^2
[20] = triphasic elimination, first of three single dose studies
[21] = triphasic elimination, last of three single dose studies
[22] = triphasic elimination, second of three single dose studies

In the case of `Nc1ccn([C@@H]2O[C@H](CO)[C@@H](O)[C@@H]2O)c(=O)n1` [Ara-C, 1β-arabinofuranosylcytosine], the cell proliferation (OCI-AML3 cells) is listed as 76%, the “plasma radioactivity accounted for by inactive metabolite ara-U” value ([1]; after the distributive phase) is listed as “more than 80%” and the “half-life of initial distributive phase” value ([1]; intravenous, biphasic elimination) is listed as “about 10 minutes”. For the same compound, the “share of urinary radioactivity excreted as ara-U” value ([1]; within 24 hours) was “approximately 90%” and the cell proliferation (MOLM14 cells) was 89%.
In the case of `Nc1nc(Cl)nc2c1ncn2[C@H]1C[C@H](O)[C@@H](CO)O1` [Clad, 2-chloro-6-amino-9-(2-deoxy-β-D-erythropentofuranosyl) purine], the cell proliferation (OCI-AML3 cells) is given as 87%, the mean terminal half-life ([2]; 2 hour infusion 0.12 mg/kg, normal renal function) is given as 5.4 h and the mean clearance ([2]; 2 hour infusion 0.12 mg/kg) is given as 978 ± 422 mL/h/kg. For the same compound, the “mean steady-state volume of distribution” value ([2]; 2 hour infusion 0.12 mg/kg) was 4.5 ± 2.8 L/kg, the average half-life ([2]; after intravenous administration, multi-exponential decline) was 6.7 ± 2.5 h and the “mean steady-state serum concentration” value [2, 14] was 5.7 ng/mL. For the same compound, the systemic clearance [2, 14] was 663.5 mL/h/kg, the “mean end-of-infusion plasma concentration” value ([2]; hematologic malignancies, 2 hour infusion 0.12 mg/kg) was 48 ± 19 ng/mL and the “apparent volume of distribution” value ([2]; human, in vivo) was “approximately 9 L/kg”. For the same compound, the “cerebrospinal fluid concentrations relative to plasma” value ([2]; one report) was “approximately 25%”.
With ABT199 the cell proliferation (OCI-AML3 cells) was 79%, the “cleavage of PARP1 and caspase 3” value [3] was “caused cleavage of PARP1” and the cell proliferation (MOLM14 cells) was 77%.
In the case of `Nc1nc(F)nc2c1ncn2[C@@H]1O[C@H](CO)[C@@H](O)[C@@H]1O` [2-fluoro-ara-A], the “factor of increase of plasma trough levels” value ([4]; 5-day treatment schedule, 25 mg 2-fluoro-ara-AMP/m^2 daily over 30 minutes) is listed as “about 2” and the terminal half-life [4] is listed as “approximately 20 hours”.
In the case of `Nc1nc(Cl)nc2c1ncn2[C@@H]1O[C@H](CO)[C@@H](O)[C@@H]1F` [clofarabine, 2-Chloro-9-(2-deoxy-2-fluoro-beta-D-arabinofuranosyl)-9H-purin-6-amine], the “dose excreted in the urine unchanged” value ([5]; 24-hour urine collections, pediatric studies) is listed as 49-60%, the systemic clearance [5, 15] is listed as 28.8 L/h/m^2 and the “volume of distribution at steady-state” value [5, 15] is listed as 172 L/m^2. The terminal half-life ([5]; pediatric ALL or AML, 52 mg/m^2) was 5.2 h, the “bound to plasma proteins” value [6] was 47% and the metabolism [7] was 0.2%.
For `C(=N\NC1=NCCN1)/c1c2ccccc2c(/C=N/NC2=NCCN2)c2ccccc12.Cl.Cl` [Bis, 9,10-anthracenedicarboxaldehyde bis[(4,5-dihydro-1H-imidazol-2-yl)hydrazine] dihydrochloride], the cell proliferation (OCI-AML3 cells) is listed as 80%, the “minimal effective in vivo dose” value [8] is listed as 25 mg/kg and the cardiotoxicity [9] is listed as “not cardiotoxic”. The “ejection fraction, radioangiocardiographic monitoring” value [10] was “no decrease in ejection fraction”, the electrocardiographic changes [10] was “No patients experienced electrocardiographic changes” and the “bound to plasma proteins” value [11] was “More than 95%”. For the same compound, the plasma concentration ([12]; 72-hr infusion study, dose 56 mg/m^2) was 12 ± 6 ng/mL, the plasma concentration ([12]; 72-hr infusion study, dose 260 mg/m^2) was 55 ± 8 ng/mL and the plasma clearance ([12]; 72-hr infusion study) was 1306±179 ml/min/m^2. The “urinary excretion of the dose” value ([12]; 72-hr infusion study, in 24 hr) was 4.6%, the “administered dose excreted unchanged in the urine” value ([12]; 90 min infusion, 260 mg/m^2, after 24 hr) was 11.3% and the initial half-life [12, 16] was 65 ± 15 min. For the same compound, the terminal half-life [12, 16] was 1142 ± 226 min, the plasma clearance ([12]; 90 min infusion, 260 mg/m^2) was 735 ml/min/m^2 and the “steady state volume of distribution (Vdss)” value ([12]; 90 min infusion, 260 mg/m^2) was 1845 L/m^2. The “dose excreted in the urine” value [12, 17] was 7.1%, the “t½ α” value [12, 17] was 54 min and the “t½ β” value [12, 17] was 9.7 h. For the same compound, the “dose excreted in the urine” value ([12]; human, in vivo) was “Less than 7%”, the “area under the plasma concentration x time curve” value ([12]; intravenous dose 260 mg/m^2) was 4.4 mg·h/mL and the “area under the plasma concentration x time curve” value ([12]; intravenous dose 340 mg/m^2) was 5.7 mg·h/mL. For the same compound, the volume of distribution ([12]; one report, interpreted as tissue sequestration) was 687 L/m^2, the “beta phase of elimination” value [12, 18] was “approximately 1.5 hours” and the “initial distributive phase of elimination” value [12, 18] was 6 min. The “administered dose found in the urine” value ([12]; trial with doses of 80-250 mg/m^2, after 96 hr) was 3.4±1.1%, the “calculated volume of distribution” value [12, 19] was 42.1 ± 5.9 L/kg and the clearance [12, 19] was 1045.5 ± 51.0 mL/kg/h. For the same compound, the initial half-life [12, 19] was 36 min, the terminal half-life [12, 19] was 1480 min and the “t½ α” value [12, 20] was 3.44 min. For the same compound, the “t½ β” value [12, 20] was 1.33 h, the “t½ γ” value [12, 20] was 26.13 h and the “t½ α” value [12, 21] was 6 min. For the same compound, the “t½ β” value [12, 21] was 1.9 h, the “t½ γ” value [12, 21] was 43.9 h and the “t½ α” value [12, 22] was 3 min. The “t½ β” value [12, 22] was 1 h, the “t½ γ” value [12, 22] was 8 h and the affinity constants (double-stranded DNA) was “above 10^6 M^−1”. For the same compound, the cell proliferation (MOLM14 cells) was 79%, the maximally tolerated dose ([13]; daily×5, repeat every 4 weeks (Spiegel et al. 1982)) was 80 mg/m^2 and the maximally tolerated dose ([13]; monthly (every 3-4 week) (Von Hoff et al., 1981b)) was 260 mg/m^2. For the same compound, the maximally tolerated dose ([13]; monthly, patients with poor bone marrow reserve (Von Hoff et al., 1981b)) was 240 mg/m^2, the maximally tolerated dose ([13]; weekly×3 (Alberts et al. 1982)) was 200 mg/m^2 and the maximally tolerated dose ([13]; weekly×3, patients with poor bone marrow reserve (Alberts et al. 1982)) was 150 mg/mg^2. The maximally tolerated dose ([13]; weekly×3, repeat every 4-5 week (B.-S. Yap et al. 1982)) was 150 mg/m^2.
